# Results reported in patent publication US12128018B2, “Combination of a selective histone deacetylase 3 (HDAC3) inhibitor and an immunotherapy agent for the treatment of cancer” (KDAc Therapeutics, Inc., priority 2018, dated 2024).
# What was measured:
# [1] = tested on: Twenty-six syngeneic cells lines; assay: viability of syngeneic cell lines; type: cell-based; settings: 10 μM
# HDAC1 = HDAC1 (Homo sapiens (Human), UniProt Q13547); assay: non-trypsin coupled in-vitro HDAC enzymatic endpoint assay (Caliper LabChip EZ-Reader); type: biochemical; settings: 3 hrs preincubation, Substrate A 2 μM
# Description: (§7) In some experiments, the following non-trypsin coupled in-vitro HDAC enzymatic endpoint assay was used to assay the compounds described herein. Below is a standardized protocol for running HDAC selectivity panel on Caliper LabChip EZ-Reader Instrument.
# (§8) Substrate A was prepared as 2 mM in DMSO. Its final concentration in the assay for HDACs 1,2,3,6 is 2 μM.
# (§9) LBH was used as quench inhibitor to stop the reaction at the end point.
# (§10) The protocol was carried out as follows: • 1. Caliper LabChip and 1 μM Marker (peptide substrate in separation buffer) were prepared for instrument run. • 2. Warm up Caliper HAB buffer to room temperature • 3. […] Add 10 μl 3× solution acetylated substrate to initiate the reaction for 50 minutes. • 5. […] Mix plate • 7. Read plate on EZ Reader instrument. Separate substrate and product peaks by capillary electrophoresis and read fluorescence from both substrate and product. • 8. Run parameters were as follows:
# HDAC3 = HDAC3 (Homo sapiens (Human), UniProt O15379); assay: as above; type: biochemical; settings: 3 hrs preincubation, Substrate A 2 μM
# Description: as §7, §8, §9, §10
# [2] = tested on: MHC Class II expression across multiple cell lines; assay: FACS detection of MHC II on human and murine tumor cell lines; type: cell-based; settings: 72 hours treatment (FIG. 1)
# Description: (§1) Cell Culture and Compound Treatment for MHC II Induction
# (§2) Human and murine tumor cell lines were obtained from the Shanghai Institutes for Biological Sciences (SIBS) or American Type Culture Collection (ATCC) and maintained in a humidified 5% CO2 incubator at 37° C. All of the human cell lines were derived from human B cell lymphomas: OCI-Ly19, OCI-Ly7, OCI-Ly18, RL, SU-DHL6, and MD901. The murine tumor cell lines were of varied origin: CT-26 (colon carcinoma), RENCA (renal cell carcinoma), P388D1 (lymphoblast of monocytes and macrophages), MPC-11 (plasmacytoma, myeloma), L5178 (thymic lymphoma), and J588 (plasmacytoma, myeloma).
# (§3) On Day 0, T25 flasks were seeded at the following cell densities:
# (§4) On Day 1, cells were treated with I-1 compound diluted in DMSO/PBS (final concentration of DMSO in the media was 0.19%). The cells were treated with I-1 compound for 72 hours. The adherent cells were dissociated with 1 mL/T25 flask of Cell Dissociation buffer (GIBCO) at 37° C. Four mL of culture media was added to each flask, samples were aliquoted FACS analysis. […]
# (§5) Cells were counted to determine cell number and viability with Vi-cell (Beckman). […]
# (§6) Cells were incubated for 1 hour at 4° C., protected from light. […] Samples were analyzed immediately using FACS machine. The data were analyzed with BD Accuri C6 software and FlowJo_V10.
# HDAC2 = HDAC2 (Homo sapiens (Human), UniProt Q92769); assay: non-trypsin coupled in-vitro HDAC enzymatic endpoint assay (Caliper LabChip EZ-Reader); type: biochemical; settings: 3 hrs preincubation, Substrate A 2 μM
# Description: as §7, §8, §9, §10
# [3] = tested on: MHC class II (IA-IE) in RENCA cells; assay: in vitro induction of MHC class II (IA-IE) in RENCA cells (FACS); type: cell-based, murine
# Description: as §1, §2, §3, §4, §5, §6
# plasma exposure (PK) = type: in vivo; settings: FIG. 13
# Description: 1) For pharmacokinetics (PK): 2 hrs after the first treatment, satellite time point (Day 11) and after the final time point (Day 14) 100 μl blood was collected from the I-1 treatment groups (3 mice/group), then centrifuged to get about 50 μl plasma for PK analysis.
# [4] = tested on: MHC class II (IA-IE) in P388D1 cells; assay: in vitro induction of MHC class II (IA-IE) in P388D1 cells (FACS); type: cell-based, murine
# Description: as §1, §2, §3
# On Day 1, cells were treated with I-1 compound diluted in DMSO/PBS (final concentration of DMSO in the media was 0.19%). The cells were treated with I-1 compound for 72 hours. The adherent cells were dissociated with 1 mL/T25 flask of Cell Dissociation buffer (GIBCO) at 37° C. Four mL of culture media was added to each flask, samples were aliquoted FACS analysis. For suspension cells, samples were aliquoted into 50 mL conical tubes for FACS analysis.
# FACS Detection of MHC II on Human and Murine Cells (IA/IE on Murine Cells)
# Cells were counted to determine cell number and viability with Vi-cell (Beckman). After washing once with 10 mL cold FACS staining buffer (PBS+0.2% BSA), liquid was aspirated and the cells were resuspended in enough cold FACS staining buffer to reach a final cell density of ˜1×10^7 viable cells/mL. 50 μL/well (˜500 k/well) of cells were added to a 96-well u-bottomed plate and the cells were stained as follows, according to manufacturer's instructions: • Sample 1: Unstained • Sample 2: stained with anti MHC II antibody (PE anti-human HLA-DR, Clone: G46-6, Becton Dickinson; PE anti-mouse I-A/I-E, Clone: M5/114.15.2, Becton Dickinson) • Sample 3: stained with isotype control
# as §6
# [5] = tested on: P388D1 cells and RENCA cells; assay: cytotoxicity, percent of viable cells; type: cell-based, murine; settings: various concentrations (FIG. 4)
# [6] = tolerability and exposure relative to NOAEL
# Chain of HDAC1 (Q13547 whole entry, species assumed): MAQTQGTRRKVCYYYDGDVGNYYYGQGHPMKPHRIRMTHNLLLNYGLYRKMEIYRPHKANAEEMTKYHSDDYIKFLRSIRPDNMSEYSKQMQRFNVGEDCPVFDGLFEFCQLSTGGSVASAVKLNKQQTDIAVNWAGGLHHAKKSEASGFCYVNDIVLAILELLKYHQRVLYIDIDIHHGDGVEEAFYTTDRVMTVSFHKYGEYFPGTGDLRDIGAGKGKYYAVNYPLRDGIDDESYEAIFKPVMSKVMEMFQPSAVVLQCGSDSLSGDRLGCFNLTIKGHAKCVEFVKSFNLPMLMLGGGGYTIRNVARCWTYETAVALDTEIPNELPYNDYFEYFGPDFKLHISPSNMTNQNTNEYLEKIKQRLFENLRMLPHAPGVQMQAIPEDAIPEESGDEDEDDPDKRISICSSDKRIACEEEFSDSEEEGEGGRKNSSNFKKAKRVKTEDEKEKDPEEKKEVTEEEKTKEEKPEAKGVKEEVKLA
# Chain of HDAC3 (O15379 whole entry, species assumed): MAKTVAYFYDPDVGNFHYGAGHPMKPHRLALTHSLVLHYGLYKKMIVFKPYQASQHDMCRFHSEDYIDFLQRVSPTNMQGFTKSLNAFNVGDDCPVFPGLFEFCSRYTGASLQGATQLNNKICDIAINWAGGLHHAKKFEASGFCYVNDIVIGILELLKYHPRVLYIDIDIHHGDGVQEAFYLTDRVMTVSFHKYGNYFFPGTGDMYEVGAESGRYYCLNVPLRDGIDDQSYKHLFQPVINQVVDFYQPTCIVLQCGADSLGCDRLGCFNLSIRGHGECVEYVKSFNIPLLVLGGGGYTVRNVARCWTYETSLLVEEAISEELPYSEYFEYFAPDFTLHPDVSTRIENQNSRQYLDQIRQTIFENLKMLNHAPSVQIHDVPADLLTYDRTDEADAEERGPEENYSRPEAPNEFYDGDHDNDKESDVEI
# Chain of HDAC3 (Q9Y618 395-489 partner, species assumed): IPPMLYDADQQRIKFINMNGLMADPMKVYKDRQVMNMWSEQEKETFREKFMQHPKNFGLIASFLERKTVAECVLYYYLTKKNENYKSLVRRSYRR
# Chain of HDAC2 (Q92769 whole entry, species assumed): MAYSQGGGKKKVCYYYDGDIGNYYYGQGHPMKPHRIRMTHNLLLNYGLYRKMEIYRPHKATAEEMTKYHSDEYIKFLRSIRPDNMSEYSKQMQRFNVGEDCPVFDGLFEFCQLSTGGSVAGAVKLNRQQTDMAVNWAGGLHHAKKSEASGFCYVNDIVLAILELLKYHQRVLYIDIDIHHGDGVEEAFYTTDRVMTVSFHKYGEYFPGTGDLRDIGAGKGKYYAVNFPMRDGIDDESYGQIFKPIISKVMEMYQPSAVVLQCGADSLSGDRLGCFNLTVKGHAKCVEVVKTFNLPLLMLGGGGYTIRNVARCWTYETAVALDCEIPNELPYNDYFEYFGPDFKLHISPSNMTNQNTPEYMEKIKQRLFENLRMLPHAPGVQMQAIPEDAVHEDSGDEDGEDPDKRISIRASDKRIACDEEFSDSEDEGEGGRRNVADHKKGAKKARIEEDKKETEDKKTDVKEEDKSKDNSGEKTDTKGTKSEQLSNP
SMILES,impact on viability [1],IC50 (HDAC1),IC50 (HDAC3),increase in MHC Class II expression [2],IC50 (HDAC2),fold more cells positive for MHC class II (IA-IE) ([3]; 1 μM I-1),fold more cells positive for MHC class II (IA-IE) ([3]; 3 μM I-1),plasma exposure (plasma exposure (PK)),fold more cells positive for MHC class II (IA-IE) ([4]; 120 nM I-1),fold more cells positive for MHC class II (IA-IE) ([4]; 3 μM I-1),cytotoxicity (percent of viable cells) [5],"tolerability ([6]; 25 and 50 mg/kg, orally, BID)","tolerated exposures relative to tolerated dose of a clinical HDAC 1,2,3 inhibitor ([6]; FIG. 13)","levels showing efficacy relative to NOAEL (no adverse effect level) ([6]; rat NOAEL, FIG. 13)",MHC class II protein levels (geometric mean MFI) ([4]; various concentrations (FIGS. 14 and 15))
CC(=O)Nc1ccc(C(=O)Nc2ccc(F)cc2N)cc1 [Compound I-1],minimal impact on viability,2190 nM,61 nM,20-100%,1510 nM,about 2 ×,about 6 ×,"above K, and below NOAEL",about 4 ×,about 13 ×,generally not cytotoxic,well tolerated,greater than 4 ×,below rat NOAEL,
"Nc1cc(F)ccc1NC(=O)/C=C/c1cnn(C/C=C/c2ccccc2)c1 [RGFP966, reference compound]",,,,,,,,,,,,,,,capable of increasing MHC class II protein levels
